Reference: PubChem BioAssay (NCI)
Several values for one entry are separate records, joined by “and”; a condition that tells them apart may be missing. Equal entries are not always repeated.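 Assay format: 96-well plates, 48-hour exposure. At the GI50, growth is halved. Definition used: TGI = concentration required for complete inhibition of growth.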

Assays:
Assay in all cases: NCI tumour cell line growth inhibition, 48 h
[1] = tested on: MCF7 breast
[2] = tested on: MDA-MB-435
[3] = tested on: NCI/ADR-RES ovarian
[4] = tested on: NCI-H522 lung
[5] = tested on: A498 renal
[6] = tested on: UO-31 renal
[7] = tested on: EKVX NSCLC
[8] = tested on: BT-549 breast
[9] = tested on: IGROV1 ovarian
[10] = tested on: SK-MEL-28 melanoma

Compound | GI50 [1] | TGI [1] | GI50 [2] | TGI [2] | GI50 [3] | TGI [3] | GI50 [4] | TGI [4] | GI50 [5] | TGI [5] | GI50 [6] | TGI [6] | GI50 [7] | TGI [7] | GI50 [8] | TGI [8] | GI50 [9] | TGI [9] | GI50 [10] | TGI [10]
CN(C)c1ncnc2c1ccn2C1OC(CO)C(O)C1O (stereo not given) | 0.115 µM | 7.32 µM | 2.55 µM | > 29.1 µM | 1.3 µM | > 30.1 µM | > 100 µM | > 100 µM | 3.49 µM | > 100 µM | 1.37 µM | 13.7 µM | 3.98 µM | > 92.3 µM | 3.98 µM | > 100 µM | 0.237 µM | 4.22 µM | > 100 µM | > 100 µM
COC(=O)Nc1nc2ccc(S(=O)(=O)c3ccc(NC(=O)Nc4cc(C(F)(F)F)ccc4F)cc3)cc2[nH]1 | > 25 µM | > 25 µM | > 25 µM | > 25 µM | > 25 µM | > 25 µM | > 25 µM | > 25 µM | > 25 µM | > 25 µM | > 25 µM | > 25 µM | > 25 µM | > 25 µM | > 25 µM | > 25 µM | > 25 µM | > 25 µM | > 25 µM | > 25 µM
Nc1cc(-c2ccccc2)n(C(=O)Nc2ccc(Oc3ccccc3)cc2)n1 | 61.7 µM | > 100 µM | > 100 µM | > 100 µM | 75.4 µM | > 100 µM | 54.7 µM | > 100 µM | > 100 µM | > 100 µM | 52.5 µM | > 100 µM | > 100 µM | > 100 µM | 86.2 µM | > 100 µM | 36 µM | > 100 µM | 1.62 µM | 39.2 µM
CCC(=O)c1c(C(F)(F)F)n([O-])c2ccccc2[n+]1=O | 1.08 µM | 6.72 µM | 2.41 µM | 10.4 µM | 1.36 µM | 13.3 µM | 2.36 µM | > 21.4 µM | 2.67 µM | 9.03 µM | 0.829 µM | > 20.2 µM | 2 µM | 7.32 µM | 2 µM | 6.13 µM | 1.38 µM | > 100 µM | 8.84 µM | 44.6 µM
COc1ccc2c(c1OC)C(=O)O[C@@H]2[C@H]1c2c(c(Br)c3c(c2OC)OCO3)CCN1C | 4.18 µM | > 100 µM | 3.55 µM | 29.6 µM | 9.22 µM | > 100 µM | 6.78 µM | > 100 µM | 27.6 µM | > 100 µM | > 100 µM | > 100 µM | 41.8 µM | > 100 µM | > 100 µM | > 100 µM | 7.77 µM | > 100 µM | > 100 µM | > 100 µM
CCN(CC)CCC(=O)O[C@H]1CC[C@H](CC(C)[C@H]2CC(=O)C(C)C=C(C)[C@H](OC(=O)CCN(CC)CC)C(OC)C(=O)[C@@H](C)CC(C)/C=C/C=C/C=C(C)C(OC)CC3CC[C@H](C)[C@](O)(O3)C(=O)C(=O)N3CCCCC3C(=O)O2)CC1OC (stereo not given in full) |  | 3.54 µM and 3.78 µM | 1.14 µM | 2.35 µM and 2.04 µM |  | 8.13 µM and 6.58 µM | 0.017 µM | 1.98 µM and 1.89 µM |  | 1.11 µM | 0.00067 µM and 0.00513 µM | 3.08 µM and 1.51 µM | 0.00704 µM | > 10 µM |  | 0.946 µM | 0.00595 µM | 1.81 µM and 1.74 µM |  | 1.95 µM
COc1ccc(CN=C(N)N=C(N)N)cc1OC | 855 µM | > 1000 µM | > 1000 µM | > 1000 µM | > 1000 µM | > 1000 µM | 714 µM | > 1000 µM | 151 µM | > 1000 µM | > 1000 µM | > 1000 µM | 40.1 µM | > 1000 µM | 260 µM | > 1000 µM | > 1000 µM | > 1000 µM | 960 µM | > 1000 µM
Cc1c(C(N)=O)sc2c1c(=O)n(Cc1ccccc1)c1nnc(S(=O)(=O)CC(=O)Nc3ccc(Cl)cc3)n21 | 4.76 µM | 70.2 µM | 3.61 µM | 17 µM | 20.2 µM | 63.4 µM | 2.53 µM | 6.73 µM | 1.26 µM | 4.21 µM | 2.86 µM | 11.3 µM | 5.89 µM | 27.4 µM | 2.92 µM | 14.9 µM | 8.57 µM | 24.3 µM | 2.98 µM | 8.45 µM
CCCC(CCC)C(=O)OCC1(CO)C/C(=C\c2ccc(C(F)(F)F)cc2)C(=O)O1 (stereo not given) | 17.4 µM | 33.9 µM | 0.304 µM | 19.3 µM | 15.3 µM | 32 µM | 15.1 µM | 31.4 µM | 0.105 µM | 10.3 µM | 12.2 µM | 26.5 µM | 11 µM | 27.2 µM | 7.04 µM | 21 µM | 14.8 µM | 33 µM | 15.5 µM | 29.2 µM
CC1=NN(c2ccccc2)C(=O)C1N=Nc1ccc(S(N)(=O)=O)cc1 (stereo not given) |  | > 100 µM |  | > 100 µM |  | > 100 µM |  | > 100 µM |  | > 100 µM |  | > 100 µM |  | > 100 µM |  | > 100 µM |  | > 100 µM |  | > 100 µM
Nc1ccccc1C#C/C=C\C#Cc1ccccc1F | 3.2 µM | > 100 µM | 2.05 µM | 4.44 µM | 2.47 µM | 6.73 µM | 6.74 µM | 23.5 µM | 7.66 µM | 21 µM | 11.9 µM | 35 µM | 10.8 µM | 53.2 µM | 4.06 µM | 18.1 µM | 5.34 µM | 28.8 µM | 18 µM | 75.1 µM
CC(C)=CCc1cc(C2COc3cc4c(c(O)c3C2=O)C=CC(C)(C)O4)c(O)cc1O (stereo not given) |  | 33.5 µM |  | 33.4 µM |  | 79.4 µM |  | 25.9 µM |  | 33.2 µM |  | 26 µM |  | 27.5 µM |  | 33.3 µM |  | 36.4 µM |  | 50.4 µM
